Experiment [1] addresses T1, engineered chimeric LGIC receptor SEQ ID NO:33 (α7-nAChR ligand binding domain with GlyRα1 Cys-loop, GlyRα1 ion pore domain) (Homo sapiens, UniProt P36544, F159M/H163T/I152M/R155K/V154L/W156N/Y151P).
T1 construct: expressed in transfected cells; host or cells: Xenopus oocytes (cDNA injection)
Description: Two electrode voltage clamp currents in Xenopus oocytes expressing the receptor. The experiment is classed as cell-based. The settings on record: Xenopus oocytes; FIG. 5. The procedure:
(§1) For Xenopus oocyte studies, injections of cDNAs encoding for ion channels at a final concentration of 0.04 μg/μL were performed using a proprietary automated injection device and receptor expression examined at least two days later. Oocytes were poked with two electrodes and their membrane potential maintained at −80 mV throughout the experiment. All recordings were performed at 18° C. and cells were superfused with OR2 medium containing in mM: NaCl 82.5, KCl 2.5, HEPES 5, CaCl2.2H2O 1.8, MgCl2.6H2O 1, pH 7.4. Recordings progressed if oocytes had sufficiently low holding current, in which case they were then subjected to ligand or test compound application (5-10 s wash intervals), with 100 s of wash in between doses. Currents evoked by acetylcholine or other agonists were recorded using an automated process equipped with standard two electrode voltage clamp configuration (TEVC). Data were captured and analyzed using HiQScreen proprietary data acquisition and analysis software running under Matlab (Mathworks Inc.). Acetylcholine was prepared as a concentrated stock solution (10-1 M) in water and then diluted in the recording medium to obtain the desired test concentration. Nicotine was diluted in water as stock solution (10-1 M), kept frozen and diluted immediately prior to the experiment at the desired concentration. Compounds were prepared as stock solution (10-1M) in OR2 and then diluted in the recording medium to obtain the desired test concentration. Stock solution for Compound-1 was made in OR2 at pH 5 adjusted with HCl. To assess that dilution at the final concentration of this stock solution introduced no significant changes, the pH of the final solution was confirmed using a colorimetric assay (Galietta L. J. V., et al. 2001. FEBS Letters 499: 220-224. Kruger W., et al. (2005). Neuroscience Letters 380: 340-345.)
(§2) To better understand the impact of the heterologous domains that had been inserted into the channels, the ligand-dependent response profiles of wild type α7-nAChR and various engineered chimeric LGIC receptors to acetylcholine as well as to non-native ligands TC-6987, AZD-0328, and Facinicline/RG3487 were assessed. Receptors were transiently expressed in […] cells and currents were measured on an automated patch clamp system (Fluxion Biosciences) following 1 second addition of drug. Inclusion of a GlyRα1 Cys-loop sequence in the extracellular domain increased the potency of all small molecules on the engineered receptor (leftward shift in EC50) (e.g. SEQ ID NO:35, FIG. 4C vs SEQ ID NO:16, FIG. 4B). […] Inclusion of both the Cys-loop and β1-β2 loop sequences of GlyRα1 in the extracellular domain reduced the sensitivity by about 1 log from that observed with the full Cys-loop sequence alone, but further increased conductance approximately 2-fold and slowed the rate of deactivation of the channel (SEQ ID NO:41, FIG. 4E vs. SEQ ID NO:33, FIG. 4D).
On the technique in general: Two-electrode voltage clamp is typically applied to oocytes expressing channels or transporters.

For experiment [2], the target named is T2, engineered chimeric LGIC receptor SEQ ID NO:41 (as SEQ ID NO:33, further comprising the β1-β2 loop domain from GlyRα1) (Homo sapiens, UniProt P36544, F159M/H163T/I152M/K68T/N69T/Q70M/R155K/V154L/W156N/Y151P).
T2 construct: expressed in transfected cells; host or cells: Xenopus oocytes (cDNA injection)
T2 sequence (P36544 with tags, fused parts or gaps K68T/N69T/Q70M/Y151P/I152M/V154L/R155K/W156N/F159M/H163T): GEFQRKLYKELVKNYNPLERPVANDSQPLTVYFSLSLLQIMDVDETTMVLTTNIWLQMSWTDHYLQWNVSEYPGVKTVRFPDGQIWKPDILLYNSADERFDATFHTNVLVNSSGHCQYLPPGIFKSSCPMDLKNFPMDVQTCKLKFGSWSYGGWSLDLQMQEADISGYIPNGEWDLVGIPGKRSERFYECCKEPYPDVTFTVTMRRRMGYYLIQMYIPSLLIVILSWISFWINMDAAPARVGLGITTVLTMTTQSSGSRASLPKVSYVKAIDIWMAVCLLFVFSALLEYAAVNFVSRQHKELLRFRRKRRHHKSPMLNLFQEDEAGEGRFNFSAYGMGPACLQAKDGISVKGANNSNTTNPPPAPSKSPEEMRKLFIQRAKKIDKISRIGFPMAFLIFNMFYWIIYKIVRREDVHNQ
Described as above. It counts as cell-based. The settings on record: FIG. 5. The procedure: as §1, §2

Each structure is given as a SMILES string.

T1 sequence (P36544 with tags, fused parts or gaps Y151P/I152M/V154L/R155K/W156N/F159M/H163T): as the sequence (P36544 with tags, fused parts or gaps K68T/N69T/Q70M/Y151P/I152M/V154L/R155K/W156N/F159M/H163T) above, with T46K, T47N, M48Q counted along it

As for `c1cnc2c(c1)C[C@@]1(CN3CCC1CC3)O2` [AZD-0328], the “fold more sensitive than wild type α7-nAChR” value in experiment [1] is listed as “approximately 3 fold”. The “sensitivity of SEQ ID NO:41 to ligand compared with wild type α7-nAChR” value in experiment [2] was “comparably sensitive”.

Source of the values: patent US10538571B2, “Compositions and methods for neurological diseases” (Coda Biotherapeutics, Inc., priority 2017, dated 2020).
